The text below walks through data of patent US20240209001A1, “HETEROCYCLIC DERIVATIVES AS JANUS KINASE INHIBITORS” (CHIESI FARMACEUTICI S.P. A., priority 2021, published 2024).

The target in one assay is TYK2 (Homo sapiens (Human), UniProt P29597). Description: Biochemical potency on Tyk2, TR-FRET LANCE Ultra kinase assay (compounds 1-92). Particulars: ATP at Km, read-out: Tyk2 inhibitory activity (pIC50 class) (converted). The method, then: (§1) Biochemical Potency on JAK1, JAK2, JAK3 and Tyk2 Assay Principle The objective of this study was to assess the capability of compounds to inhibit all 4 JAK isoforms activity in a cell-free environment. Assay for JAK 1, JAK 2, JAK 3 and TYK2 were performed by Time-resolved fluorescence resonance energy transfer (TR-FRET) technology. It consists in the interaction of two labelled binding partners detected by the energy transfer from an excited donor to an acceptor dye and measurement of light emission by the acceptor dye. LANCE Ultra kinase assay was used. In presence of JAK 1, JAK 2, JAK 3 and TYK2 kinases and ATP (corresponding to Km), the ULight peptide substrate (LANCE Ulight-JAK-1 ([…]) Peptide, Perkin Elmer, TRF0121) is phosphorylated. It is then captured by Eu-anti-phospho-substrate antibody (LANCE Eu-W1024 Anti-phosphotyrosine (PT66), Perkin Elmer, AD0069), which bring the Eu-chelate donor and ULight acceptor dyes into close proximity. Upon excitation at 320 nm, the Eu-chelate transfers its energy to the ULight dye, resulting in a fluorescent light emission at 665 nm. Compound Testing Serial dilutions of compounds in pure DMSO are prepared from 10 mM DMSO stock solutions. Compounds were tested in 384-well plate for 11 consecutive 5-fold dilutions starting from 20 μM highest concentration (20 μM-[…]). 200 nL of compound were transferred from mother plate to test plate by using Mosquito (TTP labtech). Assay was performed in 384-well Perkin Elmer test plate in 20 μL assay volume (kinase reaction) and 40 μL total volume (stopping reagent and antibody detection reagents). In 10 μL of substrate solution (peptide+ATP) 30/50/20/10 nM of peptide and 20/0.7/0.2/12 μM of ATP were added for JAK 1, JAK 2, JAK 3 and TYK2 respectively. 10 μL of enzyme solution was added to kinase reaction at these concentrations: 0.15/0.083/0.025/0.144 ng/μL of JAK 1, JAK 2, JAK 3 and TYK2 respectively. After shaking and 1.5 h of incubation at r.t., 20 μL of Stop (10 μL EDTA) and Detection mixture (10 μL Europium-anti-phospho antibody, final: 0.5 nM) were added. Reading was performed after 1 h of incubation on a EnVision 2104 reader (Perkin Elmer). Calculation of IC50 data, curves and QC analysis was performed by using Excel tool and GraphPadPrism software, v9. Briefly, individual concentration-effect curves are generated by plotting the logarithm of the tested concentration of tested compounds (X) vs. corresponding percent inhibition values (Y) using least squares (ordinary) fit. Best fit IC50 values are calculated using Log(inhibitor) vs. normalized response-Variable slope equation, where Y=100/(1+10^((Log IC50-X)*HillSlope)). QC criteria parameters (Z', S:B, R2, HillSlope) were checked for every IC50 curve. Calculation of IC50 data, curves and QC analysis were made using Excel tools and GraphPadPrism software. QC criteria parameters: Z'≥0.5, Hill Slope range 0.5 to 5, S:B>2.
TYK2, sequence (P29597 whole entry, canonical isoform): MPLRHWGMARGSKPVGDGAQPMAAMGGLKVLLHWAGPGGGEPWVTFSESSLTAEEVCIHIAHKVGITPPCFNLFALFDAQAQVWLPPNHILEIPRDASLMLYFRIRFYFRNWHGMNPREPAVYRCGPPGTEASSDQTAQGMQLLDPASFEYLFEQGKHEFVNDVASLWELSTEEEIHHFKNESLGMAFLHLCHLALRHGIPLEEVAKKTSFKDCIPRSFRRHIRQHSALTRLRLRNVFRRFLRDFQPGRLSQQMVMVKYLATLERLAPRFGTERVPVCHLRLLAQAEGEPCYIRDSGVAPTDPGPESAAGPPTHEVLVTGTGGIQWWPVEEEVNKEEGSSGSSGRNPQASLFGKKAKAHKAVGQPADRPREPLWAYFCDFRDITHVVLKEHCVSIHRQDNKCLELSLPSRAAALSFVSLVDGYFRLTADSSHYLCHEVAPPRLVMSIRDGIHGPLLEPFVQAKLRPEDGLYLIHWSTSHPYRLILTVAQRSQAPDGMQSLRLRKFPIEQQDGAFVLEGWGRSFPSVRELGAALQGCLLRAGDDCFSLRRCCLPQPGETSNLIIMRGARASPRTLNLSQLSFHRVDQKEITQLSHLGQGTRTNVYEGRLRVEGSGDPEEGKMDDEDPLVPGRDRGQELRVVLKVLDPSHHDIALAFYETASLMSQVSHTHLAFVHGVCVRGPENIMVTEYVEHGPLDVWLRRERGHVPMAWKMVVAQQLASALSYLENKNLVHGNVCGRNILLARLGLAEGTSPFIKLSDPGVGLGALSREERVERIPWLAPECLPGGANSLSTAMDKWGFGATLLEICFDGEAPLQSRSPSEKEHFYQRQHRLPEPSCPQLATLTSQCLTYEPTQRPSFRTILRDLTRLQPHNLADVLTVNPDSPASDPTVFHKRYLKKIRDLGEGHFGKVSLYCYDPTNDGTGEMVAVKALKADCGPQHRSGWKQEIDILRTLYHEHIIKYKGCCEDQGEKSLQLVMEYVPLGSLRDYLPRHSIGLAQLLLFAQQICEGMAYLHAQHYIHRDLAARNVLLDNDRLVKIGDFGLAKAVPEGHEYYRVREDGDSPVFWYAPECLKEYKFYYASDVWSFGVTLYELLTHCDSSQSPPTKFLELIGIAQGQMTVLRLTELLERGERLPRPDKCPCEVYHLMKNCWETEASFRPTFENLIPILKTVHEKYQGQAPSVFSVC

The target of a further assay is JAK 3 (Homo sapiens (Human), UniProt P52333). Description: Biochemical potency on JAK3, TR-FRET LANCE Ultra kinase assay (compounds 1-92). Particulars: ATP at Km, read-out: JAK3 inhibitory activity (pIC50 class) (converted). The method, then:
as §1

Another assay has as its target JAK 1 (Homo sapiens (Human), UniProt P23458). The experiment in a line: Biochemical potency on JAK1, TR-FRET LANCE Ultra kinase assay (compounds 1-92). The note with it: ATP at Km, read-out: JAK1 inhibitory activity (pIC50 class) (converted). The method, then: as §1
The target of another assay is JAK 2 (Homo sapiens (Human), UniProt O60674). Description: Biochemical potency on JAK2, TR-FRET LANCE Ultra kinase assay (compounds 1-92). Particulars: ATP at Km, read-out: JAK2 inhibitory activity (pIC50 class) (converted). As for the experimental part: as §1
JAK 2, sequence (O60674 whole entry): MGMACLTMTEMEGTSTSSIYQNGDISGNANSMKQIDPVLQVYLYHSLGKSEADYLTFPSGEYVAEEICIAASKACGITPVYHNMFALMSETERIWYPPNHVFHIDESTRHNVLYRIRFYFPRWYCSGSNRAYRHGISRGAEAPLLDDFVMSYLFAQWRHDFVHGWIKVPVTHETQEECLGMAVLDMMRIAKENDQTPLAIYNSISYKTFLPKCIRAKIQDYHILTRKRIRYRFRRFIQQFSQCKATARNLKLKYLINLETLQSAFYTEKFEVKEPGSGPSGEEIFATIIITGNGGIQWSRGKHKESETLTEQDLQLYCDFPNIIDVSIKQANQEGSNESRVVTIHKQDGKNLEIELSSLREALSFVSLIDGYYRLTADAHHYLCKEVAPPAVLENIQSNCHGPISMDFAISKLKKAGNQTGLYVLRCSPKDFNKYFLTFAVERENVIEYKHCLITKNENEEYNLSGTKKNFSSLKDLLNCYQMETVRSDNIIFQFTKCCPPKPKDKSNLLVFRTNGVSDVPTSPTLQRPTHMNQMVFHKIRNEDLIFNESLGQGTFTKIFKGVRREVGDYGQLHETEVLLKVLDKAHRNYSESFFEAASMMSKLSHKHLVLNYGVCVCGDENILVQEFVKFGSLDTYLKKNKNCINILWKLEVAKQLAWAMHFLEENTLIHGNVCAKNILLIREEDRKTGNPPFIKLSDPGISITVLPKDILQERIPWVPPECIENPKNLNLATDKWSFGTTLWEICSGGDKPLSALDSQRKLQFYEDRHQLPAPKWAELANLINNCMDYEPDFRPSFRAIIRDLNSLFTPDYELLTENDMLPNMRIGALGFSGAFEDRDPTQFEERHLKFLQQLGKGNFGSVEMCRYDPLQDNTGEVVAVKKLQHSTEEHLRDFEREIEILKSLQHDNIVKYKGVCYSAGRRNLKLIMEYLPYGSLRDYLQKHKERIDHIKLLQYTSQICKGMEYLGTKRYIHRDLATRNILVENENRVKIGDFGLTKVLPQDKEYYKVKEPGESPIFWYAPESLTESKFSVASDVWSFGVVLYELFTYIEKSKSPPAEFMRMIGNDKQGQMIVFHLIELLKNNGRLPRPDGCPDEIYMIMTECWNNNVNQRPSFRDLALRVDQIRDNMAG

JAK 3, sequence (P52333 whole entry): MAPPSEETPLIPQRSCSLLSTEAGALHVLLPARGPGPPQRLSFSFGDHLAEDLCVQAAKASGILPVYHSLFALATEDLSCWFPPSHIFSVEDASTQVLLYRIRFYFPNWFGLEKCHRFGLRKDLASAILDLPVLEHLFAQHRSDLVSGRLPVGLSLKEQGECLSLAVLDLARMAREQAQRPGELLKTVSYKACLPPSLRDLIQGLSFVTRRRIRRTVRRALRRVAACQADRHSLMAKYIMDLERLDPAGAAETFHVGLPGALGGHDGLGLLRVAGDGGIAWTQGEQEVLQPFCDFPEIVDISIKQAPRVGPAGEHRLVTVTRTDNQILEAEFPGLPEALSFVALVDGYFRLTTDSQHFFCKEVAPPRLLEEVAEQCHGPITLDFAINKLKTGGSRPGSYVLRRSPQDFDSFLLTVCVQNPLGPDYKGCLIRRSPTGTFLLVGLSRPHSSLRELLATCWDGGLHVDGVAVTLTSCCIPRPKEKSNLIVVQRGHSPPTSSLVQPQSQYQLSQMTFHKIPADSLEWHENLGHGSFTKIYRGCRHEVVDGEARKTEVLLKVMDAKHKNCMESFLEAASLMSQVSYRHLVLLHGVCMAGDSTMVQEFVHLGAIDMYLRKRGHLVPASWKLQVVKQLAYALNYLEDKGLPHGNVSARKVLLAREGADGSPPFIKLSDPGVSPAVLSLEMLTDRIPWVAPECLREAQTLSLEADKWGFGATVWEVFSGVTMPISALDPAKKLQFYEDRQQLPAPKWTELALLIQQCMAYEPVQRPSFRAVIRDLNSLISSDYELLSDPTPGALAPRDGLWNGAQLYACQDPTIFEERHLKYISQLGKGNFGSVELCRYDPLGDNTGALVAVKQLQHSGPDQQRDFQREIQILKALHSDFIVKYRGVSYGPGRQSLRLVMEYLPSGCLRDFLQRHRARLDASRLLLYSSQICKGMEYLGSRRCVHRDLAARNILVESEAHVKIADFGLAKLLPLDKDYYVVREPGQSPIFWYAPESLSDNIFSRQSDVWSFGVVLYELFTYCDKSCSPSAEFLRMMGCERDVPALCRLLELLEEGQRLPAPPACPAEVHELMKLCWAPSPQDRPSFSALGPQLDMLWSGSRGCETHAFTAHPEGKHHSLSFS
JAK 1, sequence (P23458 whole entry): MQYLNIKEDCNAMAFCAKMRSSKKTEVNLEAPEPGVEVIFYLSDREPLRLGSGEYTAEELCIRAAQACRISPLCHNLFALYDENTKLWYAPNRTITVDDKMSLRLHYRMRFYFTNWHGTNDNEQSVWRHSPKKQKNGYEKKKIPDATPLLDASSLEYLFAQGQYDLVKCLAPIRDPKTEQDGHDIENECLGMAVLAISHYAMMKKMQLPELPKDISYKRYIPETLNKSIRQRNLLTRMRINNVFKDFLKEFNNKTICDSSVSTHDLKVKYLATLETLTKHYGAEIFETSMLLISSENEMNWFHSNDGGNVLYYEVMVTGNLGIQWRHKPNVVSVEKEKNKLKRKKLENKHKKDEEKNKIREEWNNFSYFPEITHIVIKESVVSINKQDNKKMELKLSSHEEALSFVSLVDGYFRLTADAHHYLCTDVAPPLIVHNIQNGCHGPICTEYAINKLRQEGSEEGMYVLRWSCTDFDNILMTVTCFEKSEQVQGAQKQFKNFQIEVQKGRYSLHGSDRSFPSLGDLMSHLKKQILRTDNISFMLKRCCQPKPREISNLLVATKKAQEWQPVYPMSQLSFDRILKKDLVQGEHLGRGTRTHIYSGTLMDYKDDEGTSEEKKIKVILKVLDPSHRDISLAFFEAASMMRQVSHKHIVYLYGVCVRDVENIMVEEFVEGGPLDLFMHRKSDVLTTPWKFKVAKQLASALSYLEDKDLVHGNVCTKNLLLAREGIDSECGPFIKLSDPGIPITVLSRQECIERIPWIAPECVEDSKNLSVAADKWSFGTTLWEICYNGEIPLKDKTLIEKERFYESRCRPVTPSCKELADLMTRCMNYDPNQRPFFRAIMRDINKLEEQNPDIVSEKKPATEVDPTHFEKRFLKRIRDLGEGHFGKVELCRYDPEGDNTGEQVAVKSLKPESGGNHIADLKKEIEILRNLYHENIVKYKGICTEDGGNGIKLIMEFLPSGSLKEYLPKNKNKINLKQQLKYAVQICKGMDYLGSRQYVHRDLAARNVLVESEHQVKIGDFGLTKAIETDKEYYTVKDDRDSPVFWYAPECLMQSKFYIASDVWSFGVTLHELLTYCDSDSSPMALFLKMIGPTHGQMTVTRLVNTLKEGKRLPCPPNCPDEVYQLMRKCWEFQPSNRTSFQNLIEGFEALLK

`COc1cc(NS(=O)(=O)C2CC2)ccc1-n1nc(NCCN(C)C)c2cnc(-c3cnn4cccnc34)cc21` [Example 32, N-(4-(3-((2-(dimethylamino)ethyl)amino)-6-(pyrazolo[1,5-a]pyrimidin-3-yl)-1H-pyrazolo[4,3-c]pyridin-1-yl)-3-methoxyphenyl)cyclopropanesulfonamide]: the IC50 on TYK2 is 5.01 to 50.1 nM; on JAK 3 it was 5.01 to 50.1 nM; at JAK 1, 5.01 to 50.1 nM; on JAK 2 it was ≤ 5.01 nM.
For the compound `COc1cc(NS(=O)(=O)C2CC2)ccc1-n1nc(NCCCN2CCOCC2)c2cnc(-c3cnn4cccnc34)cc21` [Example 33, N-(3-methoxy-4-(3-((3-morpholinopropyl)amino)-6-(pyrazolo[1,5-a]pyrimidin-3-yl)-1H-pyrazolo[4,3-c]pyridin-1-yl)phenyl)cyclopropanesulfonamide], the IC50 on TYK2, on JAK 3, on JAK 1 and at JAK 2 was 5.01 to 50.1 nM in each case.
As for `COc1cc(NS(=O)(=O)C2CC2)ccc1-n1nc(NCCN2CCOCC2)c2cnc(-c3cnn4cccnc34)cc21` [Example 34, N-(3-methoxy-4-(3-((2-morpholinoethyl)amino)-6-(pyrazolo[1,5-a]pyrimidin-3-yl)-1H-pyrazolo[4,3-c]pyridin-1-yl)phenyl)cyclopropanesulfonamide], the IC50 was 5.01 to 50.1 nM on TYK2, 5.01 to 50.1 nM on JAK 3, ≤ 5.01 nM at JAK 1 and 5.01 to 50.1 nM on JAK 2.
With `CNc1nn(-c2ccc(NS(=O)(=O)C3CC3)cc2OC)c2cc(-c3cnn4cccnc34)ncc12` [Example 35, N-(3-methoxy-4-(3-(methylamino)-6-(pyrazolo[1,5-a]pyrimidin-3-yl)-1H-pyrazolo[4,3-c]pyridin-1-yl)phenyl)cyclopropanesulfonamide], the IC50 on TYK2 is 5.01 to 50.1 nM; on JAK 3, 5.01 to 50.1 nM; on JAK 1 it was ≤ 5.01 nM; at JAK 2 it was ≤ 5.01 nM.
Take `COc1cc(NS(=O)(=O)C2CC2)ccc1-n1nc(NCCN2CCCCC2)c2cnc(-c3cnn4cccnc34)cc21` [Example 36, N-(3-methoxy-4-(3-((2-(piperidin-1-yl)ethyl)amino)-6-(pyrazolo[1,5-a]pyrimidin-3-yl)-1H-pyrazolo[4,3-c]pyridin-1-yl)phenyl)cyclopropanesulfonamide]: the IC50 on TYK2, on JAK 3, on JAK 1 and at JAK 2 was 5.01 to 50.1 nM in each case.
With `COc1cc(NS(C)(=O)=O)ccc1-n1nc(NCCN2CCCCC2)c2cnc(-c3cnn4cccnc34)cc21` [Example 37, N-(3-methoxy-4-(3-((2-(piperidin-1-yl)ethyl)amino)-6-(pyrazolo[1,5-a]pyrimidin-3-yl)-1H-pyrazolo[4,3-c]pyridin-1-yl)phenyl)methanesulfonamide], the IC50 at TYK2 is 5.01 to 50.1 nM; on JAK 3, ≤ 5.01 nM; on JAK 1 it was ≤ 5.01 nM; at JAK 2, ≤ 5.01 nM.
Take `COc1cc(NS(C)(=O)=O)ccc1-n1nc(NCCN2CCN(C)CC2)c2cnc(-c3cnn4cccnc34)cc21` [Example 38, N-(3-methoxy-4-(3-((2-(4-methylpiperazin-1-yl)ethyl)amino)-6-(pyrazolo[1,5-a]pyrimidin-3-yl)-1H-pyrazolo[4,3-c]pyridin-1-yl)phenyl)methanesulfonamide]: the IC50 was 5.01 to 50.1 nM at TYK2, ≤ 5.01 nM at JAK 3, ≤ 5.01 nM at JAK 1 and ≤ 5.01 nM on JAK 2.
Turning to `COc1cc(NS(C)(=O)=O)ccc1-n1nc(NCCN(C)CCF)c2cnc(-c3cnn4cccnc34)cc21` [Example 39, N-(4-(3-((2-((2-fluoroethyl)(methyl)amino)ethyl)amino)-6-(pyrazolo[1,5-a]pyrimidin-3-yl)-1H-pyrazolo[4,3-c]pyridin-1-yl)-3-methoxyphenyl)methanesulfonamide], the IC50 at TYK2 is 5.01 to 50.1 nM; at JAK 3 it was ≤ 5.01 nM; at JAK 1 it was ≤ 5.01 nM; on JAK 2, ≤ 5.01 nM.
As to `COc1cc(NS(C)(=O)=O)ccc1-n1nc(N(C)CCN2CCOCC2)c2cnc(-c3cnn4cccnc34)cc21` [Example 40, N-(3-methoxy-4-(3-(methyl(2-morpholinoethyl)amino)-6-(pyrazolo[1,5-a]pyrimidin-3-yl)-1H-pyrazolo[4,3-c]pyridin-1-yl)phenyl)methanesulfonamide], the IC50 on TYK2, on JAK 3, on JAK 1 and at JAK 2 was 5.01 to 50.1 nM throughout.
As to `COc1cc(NS(C)(=O)=O)ccc1-n1nc(NC(=O)C2CCN(C)CC2)c2cnc(-c3cnn4cccnc34)cc21` [Example 41, N-(1-(2-methoxy-4-(methylsulfonamido)phenyl)-6-(pyrazolo[1,5-a]pyrimidin-3-yl)-1H-pyrazolo[4,3-c]pyridin-3-yl)-1-methylpiperidine-4-carboxamide], the IC50 was 5.01 to 50.1 nM at TYK2, ≤ 5.01 nM at JAK 3, ≤ 5.01 nM on JAK 1 and ≤ 5.01 nM on JAK 2.
In the case of `COc1cc(NS(C)(=O)=O)ccc1-n1nc(C(=O)NCCCN(C)C)c2cnc(-c3cnn4cccnc34)cc21` [Example 43, N-(3-(dimethylamino)propyl)-1-(2-methoxy-4-(methylsulfonamido)phenyl)-6-(pyrazolo[1,5-a]pyrimidin-3-yl)-1H-pyrazolo[4,3-c]pyridine-3-carboxamide], the IC50 on TYK2 was 5.01 to 50.1 nM; on JAK 3, 5.01 to 50.1 nM; at JAK 1, ≤ 5.01 nM; on JAK 2, ≤ 5.01 nM.
On to `COc1cc(NS(C)(=O)=O)ccc1-n1nc(C(=O)NCCN(C)C)c2cnc(-c3cnn4cccnc34)cc21` [Example 44, N-(2-(dimethylamino)ethyl)-1-(2-methoxy-4-(methylsulfonamido)phenyl)-6-(pyrazolo[1,5-a]pyrimidin-3-yl)-1H-pyrazolo[4,3-c]pyridine-3-carboxamide], for which the IC50 on TYK2 is 5.01 to 50.1 nM; at JAK 3 it was ≤ 5.01 nM; on JAK 1, ≤ 5.01 nM; on JAK 2 it was ≤ 5.01 nM.
For the compound `COc1cc(NS(C)(=O)=O)ccc1-n1nc(C(=O)NCCN2CCOCC2)c2cnc(-c3cnn4cccnc34)cc21` [Example 45, 1-(2-methoxy-4-(methylsulfonamido)phenyl)-N-(2-morpholinoethyl)-6-(pyrazolo[1,5-a]pyrimidin-3-yl)-1H-pyrazolo[4,3-c]pyridine-3-carboxamide], the IC50 on TYK2 was 5.01 to 50.1 nM; at JAK 3 it was ≤ 5.01 nM; at JAK 1, ≤ 5.01 nM; at JAK 2 it was ≤ 5.01 nM.
Turning to `CCCS(=O)(=O)Nc1ccc(-n2nc(C(=O)NCCCN(C)C)c3cnc(-c4cnn5cccnc45)cc32)c(OC)c1` [Example 46, N-(3-(dimethylamino)propyl)-1-(2-methoxy-4-(propylsulfonamido)phenyl)-6-(pyrazolo[1,5-a]pyrimidin-3-yl)-1H-pyrazolo[4,3-c]pyridine-3-carboxamide], the IC50 is > 50.1 nM on TYK2, 5.01 to 50.1 nM at JAK 3, 5.01 to 50.1 nM on JAK 1 and 5.01 to 50.1 nM at JAK 2.
On to `CCCS(=O)(=O)Nc1ccc(-n2nc(C(=O)NCCCN3CCOCC3)c3cnc(-c4cnn5cccnc45)cc32)c(OC)c1` [Example 47, 1-(2-methoxy-4-(propylsulfonamido)phenyl)-N-(3-morpholinopropyl)-6-(pyrazolo[1,5-a]pyrimidin-3-yl)-1H-pyrazolo[4,3-c]pyridine-3-carboxamide], for which the IC50 on TYK2 is > 50.1 nM; on JAK 3 it was 5.01 to 50.1 nM; at JAK 1 it was 5.01 to 50.1 nM; at JAK 2 it was 5.01 to 50.1 nM.
